Experiment [1] has as its system full-length human AR and the receptor interacting domain (RID) of SRC1. Details: method as in U.S. EPA, 2002b. The following applies: cited from earlier work.
Experiment [2] relates to human AR (LBD and AF2 domains) and the RID of human SRC2. Further details: method as in U.S. EPA, 2002b. The following applies: activity call, agonist mode, 2 h; invitroDBv3.4 ref U.S. EPA, 2002b; cited from earlier work.
Experiment [3] has the same test system. Details: method as in U.S. EPA, 2002b. As to conditions: cited from earlier work.
A further experiment has as its system AR. Further details: method as in Kleinstreuer et al., 2017. The following applies: 2017, cited from earlier work; for Agonist reference: AR agonist reference class ref Kleinstreuer et al.; for Antagonist reference: AR antagonist reference class ref Kleinstreuer et al.
The next experiment deals with AR2 cells (HepG2-AR2). Kind of experiment: Alamar Blue (resazurin) post hoc cell viability / cytotoxicity assay in AR2 cells. The following applies: spid Viability, sheet antagonist_fits; for hill_tp (Hill model top): 0 where win_model is Constant.

Read-outs that look alike come from different tables or passages of the source.

Description for AR2 cells (HepG2-AR2): For antagonist mode and cytotoxicity data, well-level normalized response (resp) was calculated as: resp=100 * RLU−bval/pval−bval where pval is the median RLU value of the MEC positive control wells (minimum four wells).

As to `C[C@]12CCC(=O)C=C1CC[C@@H]1[C@@H]2CC[C@@]2(C)[C@H]1CC[C@]2(C)O` [17-Methyltestosterone], in experiment [1], the “OT 8 hr” value is listed as 1 and the “OT 16 hr” value was 1. In addition, the UPitt agonist in experiment [2] is 0. In addition, in experiment [3], the UPitt antagonist is 0. For the same compound, in the experiment with AR, the Agonist reference entry is “Strong” and the Antagonist reference result is given as “Inactive”. Also, the Agonist reference result with AR (Supplementary Table S1) was “Strong”. Moreover, in the experiment with AR2 cells (HepG2-AR2), the “max_med (maximum median response)” value is recorded as 23.6208 and the “hill_tp (Hill model top)” value is given as 30.9505.
With `CC(=O)O[C@]1(C(C)=O)CC[C@H]2[C@@H]3C=C(Cl)C4=CC(=O)[C@@H]5C[C@@H]5[C@]4(C)[C@H]3CC[C@@]21C` [Cyproterone acetate], in experiment [1] (activity call, 8 h, single protocol detects agonists and antagonists, invitroDBv3.4 ref U.S. EPA, 2002b), the “OT 8 hr” value is reported as 1. The “OT 16 hr” value in experiment [1] (activity call, 16 h, single protocol detects agonists and antagonists, invitroDBv3.4 ref U.S. EPA, 2002b) is 1. The UPitt agonist in experiment [2] is 1. Also, the UPitt antagonist in experiment [3] (activity call, antagonist mode, 2 h, invitroDBv3.4 ref U.S. EPA, 2002b) is reported as 1. For the same compound, in the experiment with AR, the Agonist reference result is “Weak” and the Antagonist reference result is “Moderate”. In addition, in the experiment on AR (Supplementary Table S1), the Agonist reference entry is listed as “Weak” and the Antagonist reference entry was “Moderate”. In the experiment on AR2 cells (HepG2-AR2), the “max_med (maximum median response)” value is listed as 16.8337 and the “hill_tp (Hill model top)” value was 12.2685.

These data come from article PMC10112521, “High-throughput AR dimerization assay identifies androgen disrupting chemicals and metabolites” (Frontiers in Toxicology, 2023).
